# Literature values in patent US8092782B2, “Polybiotin compounds of magnetic resonance imaging and drug delivery” (priority 2003, dated 2012).
substance,measurement,value
triacetyl-beta-cyclodextrin,solubility in water,insoluble
